Test [1] has as its system Bean. As to the kind of experiment: Inhibition of the decomposition of chlorophyll in bean leaf segments. Conditions: 4 days dark. How it is done:
(§1) The active agent to be tested was dissolved in distilled water to form a 200 ppm solution, and leaf segments of the plants under examination, weighing 200 mg, were floated on the surface of the solution for 4 days in the dark. Thereafter chlorphyll was extracted from the leaf segments with methanol.
(§2) To determine the starting state, chlorophyll was extracted with methanol from untreated leaf segments weighing 200 mg. In the control test the leaf segments, weighing 200 mg, were floated on the surface of distilled water for 4 days in the dark, and then chlorophyll was extracted from the leaf segments with methanol.
(§3) The chlorophyll concentration was determined by measuring the extinction of the extracts at 665 mμ.

The subject of test [2] is Soybean. As to the kind of experiment: Inhibition of the decomposition of chlorophyll in soybean leaf segments. Conditions: 4 days dark. How it is done:
as §1, §2, §3

The subject of another test is soybean leaf segments. As to the kind of experiment: Stimulation of the protein level of soybean, glycine-14C incorporation (Example 18). Conditions: 24 hours. As for the experimental part: The active agent to be tested was dissolved in distilled water to form a 200 ppm solution, and soybean leaf segments, weighing 200 mg, were floated on the surface of the solution for 24 hours. In the control test leaf segments, weighing 200 mg, were floated on the surface of distilled water.
The leaf segments were washed with distilled water, and then treated for 3 hours with 20 ml of a solution containing labelled amino acid (glycine-^14 C; activity: 2 μCi). After this exposition period the leaf segments were washed with an aboundant amount of water, and the protein content of the leaf segments was isolated in a manner known per se. Stock solution was prepared from the isolated protein, and the specific radioactivity of the solution was determined by liquid scintillation.

Test [3] relates to Soybean. As to the kind of experiment: Total and protein nitrogen content of soybean (Example 39). The class given is in vivo. The text has this: The effects of 1,4-dihydroxyphthalazine and salts thereof exerted on the total nitrogen content and protein nitrogen content of soybean were examined as described in Example 27. The plants were sprayed with the compositions according to the invention at the beginning of the flowering of the apical cluster.

The test system of another test is maize leaves. As to the kind of experiment: Fixation of 14CO2 in maize leaves (Example 36). Conditions: 18 hours; for Fixation of 14CO2: fresh weight, control 5.72; for Fixation of 14CO2, %: increase over control. As for the experimental part:
(§4) The biological activities of cytokinin-like factors can be well characterized by measuring the intensity of the photosynthetic carbon dioxide fixation and the incorporation of labelled amino acids into the TCA-insoluble protein fraction. The intensity of photosynthetic carbon dioxide fixation was determined on maize leaves, utilizing ^14 CO2, whereas the incorporation of amino acids was examined on bean leaves, utilizing […]-^14 C.

In test [4] the test system is Alfalfa. As to the kind of experiment: Alfalfa field tests 1979, Boly (Example 26). Type of test: in vivo. The text has this: The effects of the compositions according to the invention exerted on the crop yield (green yield), crude protein content, protein nitrogen content and C/N ratio of alfalfa, observed under field conditions in the tests performed in 1979 at the Agricultural Combinate of Boly, Hungary, are listed in Table 17.

For the next test, the system named is bean leaves. As to the kind of experiment: Incorporation of Gly-2-14C in bean leaves (Example 36). Conditions: 18 hours; for Incorporation of Gly-2-14C: fresh weight, control 3.52; for Incorporation of Gly-2-14C, %: increase over control. As for the experimental part: as §4
Another test relates to hybrid maize. As to the kind of experiment: Grain yield of maize (Example 29). Type of test: in vivo. As for the experimental part:
The compositions according to the invention were applied as seed dressing agents onto the sowing-seeds of hybrid maize in a dosis of 0.5 kg/ha. The powdery compositions were wetted with water prior to application. The stand was sprayed three times during the cultivation period: first at the four-leaves development stage with a dosis of 3 kg/ha, then prior to tasseling with a dosis of 1 kg/ha, and finally prior to pollen ripening with a dosis of 2 kg/ha. The crop was evaluated as May shelled corn.

For another test, the system named is maize for silage. As to the kind of experiment: Maize for silage field tests 1979, Boly (Example 28). Type of test: in vivo. The text has this: The effects of the cytokinin-like regulators on the crop yield, crude protein content and real protein content of maize for silage, observed under field conditions in the tests performed in 1979 at the Agricultural Combinate of Boly, Hungary, are listed in Table 20.

A further test has as its system Maize. As to the kind of experiment: Inhibition of the decomposition of chlorophyll in maize. Conditions: for Chlorophyll content: 100 mg green plant, control 0.65; for activation at 200 ppm: Zea mays, 96 h, read-out: Promotion. How it is done: (§5) Thereafter chlorphyll was extracted from the leaf segments with methanol. To determine the starting state, chlorophyll was extracted with methanol from untreated leaf segments weighing 200 mg. In the control test the leaf segments, weighing 200 mg, were floated on the surface of distilled water for 4 days in the dark, and then chlorophyll was extracted from the leaf segments with methanol. […] For alfalfa and maize the chlorphyll contents of 100 mg of green plant were examined.

The subject of test [5] is Bean. As to the kind of experiment: Stimulation of photosynthesis, 14CO2 incorporation, bean leaf discs (Example 20). Conditions: 2 hours; for activation at 200 ppm: foliar. How it is done: The specific radioactivities of the stock solutions were determined by liquid scintillation. In the control test untreated leaf discs were exposed to labelled carbon, dioxide, and the amount of carbon dioxide incorporated under such conditions was regarded as standard.

The subject of test [6] is Alfalfa. As to the kind of experiment: Inhibition of the decomposition of chlorophyll in alfalfa. Conditions: for Chlorophyll content: 200 ppm, 100 mg green plant, control 0.78; for activation at 200 ppm: Medicago sativa, 96 h, read-out: Promotion. As for the experimental part: as §5

Regarding `Oc1nnc(O)c2ccccc12` [1,4-Dihydroxyphthalazine], the Chlorophyll in the test on Bean [1] (200 ppm, control 4.2) stood at 5.8 mg; in the test on Soybean [2] (200 ppm, control 3.5), 4.2 mg. In addition, the activation at 200 ppm in the test on Bean [1] (foliar, 96 h, read-out: Promotion) is 38%; in the test with Soybean [2] (Glycine max, foliar, 96 h, read-out: Promotion), 20%; in the test with soybean leaf segments (Glycine max), 35.3%. Further, the Radioactivity in the test with soybean leaf segments (200 ppm, control 11.9) is listed as 16.1 mu Ci/100 mg. In the test on Soybean [3] (control 1.9), the Protein nitrogen content is 3.8 % of dry substance. In addition, the Total nitrogen content in the test with Soybean [3] (control 2.6) is recorded as 4.6 % of dry substance. Further, the “Protein nitrogen content, increase” value with Soybean [3] (in vivo) was 100.0%. Moreover, the “Total nitrogen content, increase” value in the test with Soybean [3] (in vivo) turned out to be 77.0%.
With `CC(C)[n+]1c[nH]c2ccccc21.[Cl-]` [N--Isopropyl-benzimidazolium chloride, N-isopropyl-benzimidazolium chloride], in the test with maize leaves, the “Fixation of 14CO2” value worked out at 10.92 μCi/g and the “Fixation of 14CO2, %” value is given as 92%. Also, the C/N ratio in the test on Alfalfa [4] (control 5.31) came to 4.20. Besides, the P2O5 content in the test with Alfalfa [4] (control 8.3) was 10.9 % of dry substance. In addition, the Crude protein content in the test on Alfalfa [4] (control 21.3) is given as 25.8 % of dry substance. The Green yield in the test with Alfalfa [4] (control 120) came to 142 q/ha. Also, in the test with Alfalfa [4] (in vivo), the “C/N ratio, decrease” value is recorded as 21.0%; the “Crude protein content, increase” value came to 21.5%; the “Green yield, increase” value is reported as 18.7%; the “P2O5 content, increase” value is 31.7%. In addition, in the test with bean leaves, the “Incorporation of Gly-2-14C” value is 4.85 μCi/g and the “Incorporation of Gly-2-14C, %” value worked out at 35%. Besides, the “Grain yield, increase” value in the test with hybrid maize (in vivo) is reported as 57.1%. Moreover, the Grain yield in the test on hybrid maize (seed dressing 0.5 kg/ha + sprays 3, 1, 2 kg/ha, control 132.8) is on record as 208.5 q/ha. The P2O5 content in the test with maize for silage (control 7.5) is given as 9.8 % of dry substance. Further, in the test with maize for silage (control 13.2), the Crude protein content is given as 17.1 % of dry substance. Besides, the C/N ratio in the test with maize for silage (control 31.4) is given as 23.5. Also, the Green weight with maize for silage (control 310.2) worked out at 398.2 q/ha. For the same compound, in the test on maize for silage (in vivo), the “C/N ratio, decrease” value worked out at 25.4%; the “Crude protein content, increase” value turned out to be 29.7%; the “Green weight, increase” value was 28.4%; the “P2O5 content, increase” value is recorded as 30.8%.
For the compound `CCn1cnc2ccccc21` [N--ethyl-benzimidazolium bromide], the “Fixation of 14CO2” value with maize leaves is given as 6.72 μCi/g. For the same compound, the “Fixation of 14CO2, %” value in the test with maize leaves is 18%. The Chlorophyll content with Maize (200 ppm) was determined as 0.79 mg; in the test with Alfalfa [6], 0.85 mg. Besides, the activation at 200 ppm worked out at 21.5% in the test with Maize, 184% in the test on Bean [5] and 8.9% with Alfalfa [6]. Besides, the “Incorporation of Gly-2-14C” value in the test on bean leaves turned out to be 4.25 μCi/g. In addition, the “Incorporation of Gly-2-14C, %” value in the test on bean leaves is listed as 21%.
For the compound `Cn1cnc2ccccc21` [N--methyl-benzimidazolium bromide], in the test on maize leaves, the “Fixation of 14CO2” value was 8.12 μCi/g. In addition, in the test on maize leaves, the “Fixation of 14CO2, %” value is listed as 42%. For the same compound, the Chlorophyll content in the test on Maize (200 ppm) is 0.80 mg; in the test on Alfalfa [6] it was 0.83 mg. Besides, the figures for the activation at 200 ppm in the test on Maize, in the test on Bean [5] and in the test on Alfalfa [6] were 23%, 125% and 6.4%, respectively. Further, in the test on bean leaves, the “Incorporation of Gly-2-14C” value came out at 4.75 μCi/g. For the same compound, the “Incorporation of Gly-2-14C, %” value with bean leaves is listed as 35%.
For N--bromoethyl-benzimidazolium bromide, in the test with maize leaves, the “Fixation of 14CO2” value is recorded as 6.46 μCi/g and the “Fixation of 14CO2, %” value amounted to 13%. Besides, in the test on Maize (200 ppm), the Promotion came to 9.2% and the Chlorophyll content amounted to 0.71 mg. The “Stimulation (14CO2 incorporation)” value in the test on Bean [5] (200 ppm) is 57%. In the test on bean leaves, the “Incorporation of Gly-2-14C” value was 4.36 μCi/g and the “Incorporation of Gly-2-14C, %” value is listed as 24%. The compound further registered a Chlorophyll content with Alfalfa [6] of 0.64 mg.

For the origin of these results see patent US4620871A (priority 1980, dated 1986).
